# Test results reported in US7267975B2, “Methods and compositions relating to insect repellents from a novel endophytic fungus” (Montana State University, priority 2002, dated 2007).
# Tested on: adult wheat stem sawflies (C. cinctus)
# Assay: Y-tube olfactometry insect repellency test
# Format: in vivo
# Conditions: for Ratio: preference of insect to non-naphthalene side (control) of Y-tube vs. naphthalene source side of tube: control acetone on paper disk, 30 insects
# Procedure: FIG. 1. A highly schematic drawing of the olfactory Y-tube used to measure insect behavior in the presence of various naphthalene sources. A 6.3 volt light source is placed at the base of the Y-tube as illustrated in the drawing.
# In controlled, replicated experiments, both authentic naphthalene as well as M. vitigenus, were used as odor sources in Y-tube olfactometry tests (FIG. 1). […] Thirty successful trials using naphthalene test solution A (with a naphthalene release rate of 12 ng hr^−1) were completed (Table 1). Out of 30 insects, 24 responded by moving away from the naphthalene source. A second set of 30 successful trials were completed using naphthalene test solution B. Out of 30 insects, 21 were repelled by the naphthalene source. Finally, sixty successful trials were preformed using 0.0785 cm^2 fungal plugs (2-3 weeks old) of M. vitigenus as the odor source. Out of the 60 insects, 49 traveled away from the fungus and its volatiles. The results of both test concentrations of authentic naphthalene were statistically different from the acetone control test papers (Table 1). Insect behaviour in tests involving agar plugs containing M. vitigenus was also statistically different (a=0.001) from the controls (Table 1). […] Table 1. Influence of authentic naphthalene and M. vitigenus volatiles, containing mostly naphthalene, on the behavior of adult wheat stem sawflies (C. cinctus). Bioassay tests were conducted in Y-olfactory tubes.
compound,measurement,setting,value
"c1ccc2ccccc2c1 [Authentic naphthalene, naphthalene]",Insect behaviour (orientation) in the presence of the odor source,"many of the insects tested, Y-tube",more disoriented than usual
same,Number of insects moving away from the naphthalene source,"out of 30 insects, naphthalene test solution A (release rate 12 ng hr^-1)",24
same,Number of insects repelled by the naphthalene source,"out of 30 insects, naphthalene test solution B",21
same,Ratio: preference of insect to non-naphthalene side (control) of Y-tube vs. naphthalene source side of tube,"test concentration (A), naphthalene release rate 12 ng hr^-1",24/6
same,Ratio: preference of insect to non-naphthalene side (control) of Y-tube vs. naphthalene source side of tube,test concentration (B),21/9
